Test results: PubChem BioAssay (NCI)
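Protocol summary: plate cells (96-well), add compound at 5 concentrations, incubate 48 h, interpolate endpoints linearly. GI50 is the concentration that inhibits growth by half. The concentration for full growth arrest is given as TGI.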

Assays:
Assay in all cases: growth of human tumour cells (NCI), 48 h
KM12 colon = test system: KM12 colon
SF-268 CNS = test system: SF-268 CNS
OVCAR-4 ovarian = test system: OVCAR-4 ovarian
UACC-62 melanoma = test system: UACC-62 melanoma
COLO 205 colon = test system: COLO 205 colon
A498 renal = test system: A498 renal
SW-620 colon = test system: SW-620 colon
SK-OV-3 ovarian = test system: SK-OV-3 ovarian
HCT-116 colon = test system: HCT-116 colon
NCI-H23 lung = test system: NCI-H23 lung

Row | SMILES | TGI (KM12 colon) [µM] | TGI (SF-268 CNS) [µM] | TGI (OVCAR-4 ovarian) [µM] | TGI (UACC-62 melanoma) [µM] | TGI (COLO 205 colon) [µM] | TGI (A498 renal) [µM] | TGI (SW-620 colon) [µM] | TGI (SK-OV-3 ovarian) [µM] | TGI (HCT-116 colon) [µM] | TGI (NCI-H23 lung) [µM] | GI50 (KM12 colon) [µM] | GI50 (OVCAR-4 ovarian) [µM] | GI50 (UACC-62 melanoma) [µM] | GI50 (A498 renal) [µM] | GI50 (SW-620 colon) [µM] | GI50 (SK-OV-3 ovarian) [µM] | GI50 (NCI-H23 lung) [µM] | GI50 (SF-268 CNS) [µM] | GI50 (COLO 205 colon) [µM] | GI50 (HCT-116 colon) [µM]
1 | CCN(CC)COC(=S)S | > 100 | > 100 | > 100 | > 100 | > 100 | > 100 | 78.1 | > 100 | > 100 | > 100 | – | – | – | – | – | – | – | – | – | –
2 | Cn1c2c3c(F)c(F)ccc3nc-2cc2ccccc21 | 4.76 | 25.4 | 22.9 | 15.8 | 10.7 | 2.89 | 12.4 | 21.1 | – | 3.18 | – | – | – | – | – | – | – | – | – | –
3 | CCN(CC)CCNc1ccc2nnn3c4ccccc4c(=O)c1c23 | 17.3 | 19.2 | 13.7 | 20.4 | 16.2 | 24.2 | 15.4 | 62.5 | 35.2 | 19.7 | – | – | – | – | – | – | – | – | – | –
4 | C[N+](C)([O-])Cc1cc(-c2ccccc2)ccc1O | > 100 | > 100 | > 100 | > 100 | – | > 100 | > 100 | – | > 100 | > 100 | – | – | – | – | – | – | – | – | – | –
5 | O=c1nc2sc3ccc4ccccc4c3n2[nH]c1=O | > 100 | > 100 | 81.2 | > 100 | > 100 | – | > 100 | > 100 | > 100 | > 100 | – | – | – | – | – | – | – | – | – | –
6 | COC(=O)c1cc(C)n(CN(Cc2ccccc2)Cn2nc(C(=O)OC)cc2C)n1 | > 100 | > 100 | > 100 | > 100 | > 78.1 | > 100 | > 78 | > 100 | > 59.8 | > 100 | – | – | – | – | – | – | – | – | – | –
7 | NC(=O)C(Nc1ccc(Cl)cc1)c1cc2cc(Br)ccc2nc1Cl (stereo not drawn) | > 50 | > 50 | > 50 | > 50 | > 50 | > 50 | > 50 | > 50 | > 50 | > 50 | – | – | – | – | – | – | – | – | – | –
8 | Cc1cc(C)n(CN(Cn2nc(C)cc2C)c2ccccc2)n1 | 42.6 | 52.6 | 52 | 26.5 | 28.1 | > 100 | 69.8 | > 100 | 41.4 | 40.8 | – | – | – | – | – | – | – | – | – | –
9 | CCN(CC)CCNc1ccc(C)c2sc3ccccc3c(=O)c12 | 10.4 | 20.4 | 18.1 | 3.68 | 4.23 | 8.05 | 4.35 | 18.1 | 4.31 | 10.3 | – | – | – | – | – | – | – | – | – | –
10 | CC(=O)N/C(=C\c1ccc(/C=C(\NC(C)=O)C2=NC3C(=O)c4ccccc4C(=O)C3N2)cc1)C1=NC2C(=O)c3ccccc3C(=O)C2N1 (stereo not drawn) | > 100 | > 100 | > 100 | > 100 | > 100 | > 100 | – | > 100 | > 100 | > 100 | – | – | – | – | – | – | – | – | – | –
11 | CC1=CC(C)(C)Nc2ccc(CSc3ccccc3)cc21 | 63.5 | > 100 | 46.1 | > 100 | 52.8 | 74.4 | > 100 | 90.1 | 91.9 | > 100 | – | – | – | – | – | – | – | – | – | –
12 | O=C1C(Cl)C(c2cc3cc(Br)ccc3nc2Cl)N1c1c(Cl)cccc1Cl (stereo not drawn) | > 25 | > 25 | 11.4 | > 25 | > 25 | > 25 | > 25 | > 25 | > 25 | > 25 | – | – | – | – | – | – | – | – | – | –
13 | CC[C@@H](/C=C\CCC1(C[C@@H](N)CCC=C(C)C)OCCO1)O[Si](C(C)C)(C(C)C)C(C)C | 35.3 | 39.9 | 36.8 | 31.9 | 27.3 | 32.4 | 51.6 | 37.8 | 31.4 | 38.2 | – | – | – | – | – | – | – | – | – | –
14 | O=C(O)c1nccnc1C(=O)O | > 100 | > 100 | > 100 | > 100 | > 100 | – | > 100 | > 100 | > 100 | > 100 | – | – | – | – | – | – | – | – | – | –
15 | O=[As](O)(O)c1ccc2nc3cc([As](=O)(O)O)ccc3nc2c1 | > 100 | > 100 | > 100 | > 100 | – | > 100 | > 100 | – | > 100 | > 100 | – | – | – | – | – | – | – | – | – | –
16 | CCCCCCCCCCCCCCCC(=O)OC1C(O)C(CO)OC(OC)C1NC(=O)N(CCCl)N=O (stereo not drawn) | 35.1 | 15.5 | 36.3 | 17.1 | 40.4 | – | 26.1 | – | 30 | 21 | – | – | – | – | – | – | – | – | – | –
17 | C=CCc1cccc(/C=N\N=C(/N)NO)c1O | > 80.9 | > 100 | 38.3 | 7.11 | > 29.7 | > 51.6 | > 100 | 32.5 | > 79.6 | 26.5 | – | – | – | – | – | – | – | – | – | –
18 | CN(C)C(=O)C1CCN(Cc2c[nH]c3ccccc23)CC1 | > 100 | > 100 | > 100 | > 100 | > 100 | > 100 | 30.7 | > 100 | > 100 | > 100 | – | – | – | – | – | – | – | – | – | –
19 | Nc1ccccc1N=Nc1c(S(=O)(=O)O)cc2cc(S(=O)(=O)O)cc(O)c2c1O | > 100 | > 100 | > 100 | > 100 | > 100 | > 100 | > 100 | > 100 | > 100 | > 100 | – | – | – | – | – | – | – | – | – | –
20 | O=C(/C=C/c1ccc(O)c(O)c1)NCCc1ccc(-c2ccccc2)cc1 | > 100 | > 100 | > 100 | – | > 100 | > 100 | > 100 | > 100 | > 100 | > 100 | – | – | – | – | – | – | – | – | – | –
21 | CCOC(=O)NC(Nc1ccc(Cl)cn1)(C(F)(F)F)C(F)(F)F | > 100 | > 100 | – | > 100 | – | > 100 | – | > 100 | > 100 | > 100 | – | – | – | – | – | – | – | – | – | –
22 | CC(C)CN(CC#N)CC(C)C | > 100 | > 100 | > 100 | > 100 | > 100 | > 100 | > 100 | > 100 | > 100 | > 100 | – | – | – | – | – | – | – | – | – | –
23 | Cc1c2c(ccc3ccccc32)c[n+]2ccccc12 | 11.8 | 11.3 | 28.9 | – | 33.7 | – | > 100 | – | > 100 | 22.5 | – | – | – | – | – | – | – | – | – | –
24 | Cn1c(-c2ccc(N=NNc3ccc(-c4n[nH]c(=S)n4C)cc3)cc2)n[nH]c1=S | – | > 100 | > 100 | – | > 100 | > 100 | > 100 | 54.9 | > 100 | > 100 | – | – | – | – | – | – | – | – | – | –
25 | Cc1ccc(-c2cc(-c3c(C)nn(C)c(=O)c3N)[nH]n2)cc1 | > 100 | > 100 | > 100 | > 100 | > 100 | > 100 | > 100 | > 100 | > 100 | > 100 | – | – | – | – | – | – | – | – | – | –
26 | Cc1ccc(C2CC(c3cccc(Nc4ccncc4)c3)=NN2c2ccccc2)cc1 (stereo not drawn) | 3.25 | – | 3.12 | 3.12 | – | 5.63 | 3.3 | 5.88 | – | 2.97 | 1.75 | 1.69 | 1.71 | 1.86 | 1.71 | 2.34 | 1.53 | – | – | –
27 | [O-][n+]1c(-c2ccccc2)c2nc3ccccc3nc2c2ccccc21 | > 100 | > 100 | > 100 | > 100 | > 100 | > 100 | > 100 | > 100 | > 100 | > 100 | – | – | – | – | – | – | – | – | – | –
28 | O=C(O)Cn1c2c(c3c(O)cccc31)C(=O)c1ccccc1-2 | > 100 | > 100 | > 100 | – | > 100 | > 100 | > 100 | > 100 | > 100 | > 100 | > 100 | > 100 | – | > 100 | > 100 | > 100 | > 100 | > 100 | > 100 | 93.6
